In ChEMBL document CHEMBL3044861, “Synthesis and Herbicidal Activity of New 2-(1-Carbamoyl-1, 2, 4-triazol-3-ylsulfonyl) alkanoates” (J Pestic Sci, 2002):

Key:
[1] = Herbicidal activity against broadleaf weed assessed as killing at 25 g/ha pre-emergence application under paddy conditions; assay type: functional
[2] = test system: Schoenoplectiella juncoides; test: Herbicidal activity against Schoenoplectiella juncoides assessed as killing at 25 g/ha pre-emergence application under paddy conditions; assay type: functional
Pontederia vaginalis [3] = test: Herbicidal activity against Monochoria vaginalis assessed as killing at 25 g/ha pre-emergence application under paddy conditions; assay type: functional
Zea mays = test: Herbicidal activity against Zea mays (maize)assessed as killing at 500 g/ha pre-emergence application upland paddy conditions measured after 14 days; assay type: functional
Oryza sativa [4] = test: Toxicity in Oryza sativa (rice) assessed as injury at 25 g/ha pre-emergence application under paddy conditions by crop safety assay; assay type: organism-based; settings: in vivo, other
[5] = Herbicidal activity against broadleaf weed assessed as killing at 50 g/ha pre-emergence application under paddy conditions; assay type: functional
Echinochloa crus-galli = test: Herbicidal activity against Echinochloa crus-galli (barnyard grass) assessed as killing at 500 g/ha pre-emergence application upland paddy conditions measured after 14 days; assay type: functional
Pontederia vaginalis [6] = test: Herbicidal activity against Monochoria vaginalis assessed as killing at 50 g/ha pre-emergence application under paddy conditions; assay type: functional
Chenopodium album = test: Herbicidal activity against Chenopodium album assessed as killing at 500 g/ha pre-emergence application upland paddy conditions measured after 14 days; assay type: functional
[7] = test system: Schoenoplectiella juncoides; test: Herbicidal activity against Schoenoplectiella juncoides assessed as killing at 50 g/ha pre-emergence application under paddy conditions; assay type: functional
Echinochloa oryzicola [8] = test: Herbicidal activity against Echinochloa oryzicola assessed as killing at 50 g/ha pre-emergence application under paddy conditions; assay type: functional
Oryza sativa [9] = test: Toxicity in Oryza sativa (rice) assessed as injury at 50 g/ha pre-emergence application under paddy conditions by crop safety assay; assay type: organism-based; settings: in vivo, other
Echinochloa oryzicola [10] = test: Herbicidal activity against Echinochloa oryzicola assessed as killing at 25 g/ha pre-emergence application under paddy conditions; assay type: functional
Digitaria ciliaris = test: Herbicidal activity against Digitaria ciliaris assessed as killing at 500 g/ha pre-emergence application upland paddy conditions measured after 14 days; assay type: functional
Echinochloa oryzicola [11] = test: Herbicidal activity against Echinochloa oryzicola assessed as killing pre-emergence application under paddy conditions; assay type: functional
[12] = Octanol-water partition coefficient, log K of the compound; assay type: physicochemical; settings: read-out: log K
Echinochloa oryzicola [13] = test: Herbicidal activity against Echinochloa oryzicola assessed as killing at 10 g/ha pre-emergence application under paddy conditions; assay type: functional
[14] = test system: Schoenoplectiella juncoides; test: Herbicidal activity against Schoenoplectiella juncoides assessed as killing at 10 g/ha pre-emergence application under paddy conditions; assay type: functional
Pontederia vaginalis [15] = test: Herbicidal activity against Monochoria vaginalis assessed as killing at 10 g/ha pre-emergence application under paddy conditions; assay type: functional
[16] = Herbicidal activity against broadleaf weed assessed as killing at 10 g/ha pre-emergence application under paddy conditions; assay type: functional
Oryza sativa [17] = test: Toxicity in Oryza sativa (rice) assessed as injury at 10 g/ha pre-emergence application under paddy conditions by crop safety assay; assay type: organism-based; settings: in vivo, other

CCN(CC)C(=O)n1cnc(S(=O)(=O)c2c(C)cc(C)cc2C)n1 [CAFENSTROLE]
Activity [1]: 90% | Activity [2]: 90% | Activity (Pontederia vaginalis [3]): 100% | Activity (Zea mays): 60% | Activity (Oryza sativa [4]): 10% | Activity [5]: 100% | Activity (Echinochloa crus-galli): 90% | Activity (Pontederia vaginalis [6]): 100% | Activity (Chenopodium album): 100% | Activity [7]: 100% | Activity (Echinochloa oryzicola [8]): 100% | Activity (Oryza sativa [9]): 10% | Activity (Echinochloa oryzicola [10]): 100% | Activity (Digitaria ciliaris): 90%

CCN(CC)C(=O)n1cnc(S(=O)(=O)C(CC(C)C)C(=O)OC)n1 (configuration not stated)
Activity [1]: 70% | Activity [2]: 80% | Activity (Pontederia vaginalis [3]): 50% | Activity (Zea mays): 40% | log(1/ED80) (Echinochloa oryzicola [11]): 1.26 | Activity (Oryza sativa [4]): 10% | Activity [5]: 100% | Activity (Echinochloa crus-galli): 100% | Activity (Pontederia vaginalis [6]): 100% | Activity (Chenopodium album): 100% | Activity [7]: 100% | Activity (Echinochloa oryzicola [8]): 100% | Activity (Oryza sativa [9]): 10% | Activity (Echinochloa oryzicola [10]): 100% | logP [12]: 0.68 | Activity (Digitaria ciliaris): 100%

CCN(CC)C(=O)n1cnc(S(=O)(=O)C(CC(C)C)C(=O)OC(C)C)n1 (configuration not stated)
Activity [1]: 90% | Activity (Echinochloa oryzicola [13]): 40% | Activity [14]: 30% | Activity [2]: 60% | Activity (Pontederia vaginalis [3]): 40% | Activity (Pontederia vaginalis [15]): 10% | Activity [16]: 40% | log(1/ED80) (Echinochloa oryzicola [11]): 1.41 | Activity (Oryza sativa [4]): 10% | Activity [5]: 100% | Activity (Pontederia vaginalis [6]): 100% | Activity [7]: 100% | Activity (Echinochloa oryzicola [8]): 100% | Activity (Oryza sativa [9]): 10% | Activity (Oryza sativa [17]): 10% | Activity (Echinochloa oryzicola [10]): 90% | logP [12]: 0.89

CCCCCOC(=O)C(CC(C)C)S(=O)(=O)c1ncn(C(=O)N(CC)CC)n1 (configuration not stated)
Activity [1]: 30% | Activity [2]: 10% | Activity (Pontederia vaginalis [3]): 10% | log(1/ED80) (Echinochloa oryzicola [11]): 0.62 | Activity (Oryza sativa [4]): 10% | Activity [5]: 60% | Activity (Pontederia vaginalis [6]): 10% | Activity [7]: 40% | Activity (Echinochloa oryzicola [8]): 40% | Activity (Oryza sativa [9]): 10% | Activity (Echinochloa oryzicola [10]): 40% | logP [12]: 1.18

CCN(CC)C(=O)n1cnc(S(=O)(=O)[C@H](CC(C)C)C(=O)OC(C)C)n1
Activity [1]: 60% | Activity (Echinochloa oryzicola [13]): 50% | Activity [14]: 10% | Activity [2]: 40% | Activity (Pontederia vaginalis [3]): 40% | Activity (Pontederia vaginalis [15]): 10% | Activity [16]: 40% | Activity (Oryza sativa [4]): 10% | Activity (Oryza sativa [17]): 10% | Activity (Echinochloa oryzicola [10]): 90%

CCN(CC)C(=O)n1cnc(S(=O)(=O)C(CC(C)C)C(=O)OC(C)(C)C)n1 (configuration not stated)
Activity [1]: 10% | Activity [2]: 10% | Activity (Pontederia vaginalis [3]): 10% | log(1/ED80) (Echinochloa oryzicola [11]): 1 | Activity (Oryza sativa [4]): 10% | Activity [5]: 10% | Activity (Pontederia vaginalis [6]): 10% | Activity [7]: 10% | Activity (Echinochloa oryzicola [8]): 90% | Activity (Oryza sativa [9]): 10% | Activity (Echinochloa oryzicola [10]): 30% | logP [12]: 0.99

CCCCOC(=O)C(CC(C)C)S(=O)(=O)c1ncn(C(=O)N(CC)CC)n1 (configuration not stated)
Activity [1]: 60% | Activity [2]: 100% | Activity (Pontederia vaginalis [3]): 90% | log(1/ED80) (Echinochloa oryzicola [11]): 1.3 | Activity (Oryza sativa [4]): 10% | Activity [5]: 80% | Activity (Pontederia vaginalis [6]): 100% | Activity [7]: 100% | Activity (Echinochloa oryzicola [8]): 100% | Activity (Oryza sativa [9]): 10% | Activity (Echinochloa oryzicola [10]): 100% | logP [12]: 1.04

CCOC(=O)C(CC(C)C)S(=O)(=O)c1ncn(C(=O)N(CC)CC)n1 (configuration not stated)
Activity [1]: 50% | Activity [2]: 30% | Activity (Pontederia vaginalis [3]): 40% | log(1/ED80) (Echinochloa oryzicola [11]): 1.27 | Activity (Oryza sativa [4]): 10% | Activity [5]: 60% | Activity (Pontederia vaginalis [6]): 90% | Activity [7]: 90% | Activity (Echinochloa oryzicola [8]): 100% | Activity (Oryza sativa [9]): 10% | Activity (Echinochloa oryzicola [10]): 90% | logP [12]: 0.78

CCCOC(=O)C(CC(C)C)S(=O)(=O)c1ncn(C(=O)N(CC)CC)n1 (configuration not stated)
Activity [1]: 60% | Activity [2]: 70% | Activity (Pontederia vaginalis [3]): 60% | log(1/ED80) (Echinochloa oryzicola [11]): 1.41 | Activity (Oryza sativa [4]): 10% | Activity [5]: 100% | Activity (Pontederia vaginalis [6]): 100% | Activity [7]: 100% | Activity (Echinochloa oryzicola [8]): 100% | Activity (Oryza sativa [9]): 10% | Activity (Echinochloa oryzicola [10]): 90% | logP [12]: 0.9
